Results from US6818631B1, “Fungicidal pyrimidine derivatives” (Nippon Soda Co. Ltd., priority 2003, dated 2004).

| Compound | melting point |
| --- | --- |
| C#CCOc1nc(-n2ccnc2)c(I)c(C(F)(F)F)n1 [Example 13, 4-Imidazol-1-yl-5-iodo-2-prop-2-ynyloxy-6-trifluoromethyl-pyrimidine] | 128 to 129 °C |
| O=C1CCCN1c1nc(-n2ccnc2)c(I)c(C(F)(F)F)n1 [Example 14, 1-(4-Imidazol-1-yl-5-iodo-6-trifluoromethylpyrimidin-2-yl)-pyrrolidin-2-one] | 195 to 197 °C |
| C#Cc1c(-n2ccnc2)nc(C)nc1C(F)(F)F [Example 18, 5-Ethynyl-4-imidazol-1-yl-2-methyl-6-trifluoromethylpyrimidine] | 121 to 122 °C |
| CSc1nc(-c2nn[nH]n2)c(I)c(C(F)(F)F)n1 [Example 15, 5-Iodo-2-methylthio-4-(2H-tetrazol-5-yl)-6-trifluoromethyl-pyrimidine] | 196 to 200 °C |
| Fc1c(-n2ccnc2)nc(-n2ccnc2)nc1C(F)(F)F [Example 19, 5-Fluoro-2,4-diimidazol-1-yl-6-trifluoromethylpyrimidine] | 142 to 150 °C (dec.) |
